The text below walks through data of article PMC11074101 (Cell Discovery, 2024).

Common to all, as to format: cell-based
Assay [1] has as its target T1, MCHR2 A185(45.51)F (Homo sapiens, UniProt Q969V1, A185F).
T1 construct: expressed in transfected cells; host or cells: AD293
Description: IP-One IP1 accumulation assay, MCHR2 A185F. To be noted: n = 3 in triplicate. An excerpt: (§1) The gene sequences encoding human MCHR1 (residues 70‒405) and MCHR2 (residues 1‒331, with L256^6.40Y mutation) were subcloned into pFastBac vector (Invitrogen) with an N-terminal haemagglutinin signal peptide (HA) and a thermostabilized BRIL fusion, followed by a C-terminal 15-amino acid linker, a LgBiT subunit and two MBPs to facilitate receptor expression and stability. The Gαi construct was designed with dominant-negative mutations S47N, G203A, A326S, and E245A to decrease the affinity of nucleotide-binding and stable Gαβγ complex. The mini-Gαq construct was designed with the C-terminal α-helix (αH5) of Gαq, which is critical for G protein coupling selectivity. The core of the construct, known as the Ras domain, is derived from Gαs. This design choice was made to enable the binding of the nanobody Nb35, which stabilizes the complex for cryo-EM analysis. […]
(§2) IP1 accumulation assay was applied for the detection of the downstream Gαq signal of MCHR2 using the IP-One HTRF kit (Cisbio). […] Before measurement, the samples were incubated at RT for 30 min and measured with EnVision multi-plate reader (PerkinElmer).
(§3) Concentration–response curves were evaluated with a three-parameter logistic equation. The significance was determined with one-way ANOVA with Tukey’s test, and P < 0.05 vs wild type was considered statistically significant.

In assay [2] the target is T2, MCHR2 L89(2.60)A (Homo sapiens, UniProt Q969V1, L89A).
T2 construct: expressed in transfected cells; host or cells: AD293
In words: IP-One IP1 accumulation assay, MCHR2 L89A. To be noted: n = 3 in triplicate.
Description: as §1, §2, §3

The target in assay [3] is T3, MCHR2 I292(7.39)A (Homo sapiens, UniProt Q969V1, I292A).
T3 construct: expressed in transfected cells; host or cells: AD293
In words: IP-One IP1 accumulation assay, MCHR2 I292A. The settings on record: n = 3 in triplicate.
Description: as §1, §2, §3

In assay [4] the target is T4, MCHR2 D179(ECL2)A (Homo sapiens, UniProt Q969V1, D179A).
T4 construct: expressed in transfected cells; host or cells: AD293
In words: IP-One IP1 accumulation assay, MCHR2 D179A. To be noted: n = 3 in triplicate.
Description: as §1, §2, §3

In assay [5] the target is T5, MCHR1 I265(45.52)A (Homo sapiens, UniProt Q99705, I196A).
T5 construct: expressed in transfected cells; host or cells: HEK293
Description: GloSensor cAMP assay, MCHR1 I265A. The settings on record: HEK293, mean ± S.E.M., n = 3 in triplicate. An excerpt: (§4) The gene sequences encoding human MCHR1 (residues 70‒405) and MCHR2 (residues 1‒331, with L256^6.40Y mutation) were subcloned into pFastBac vector (Invitrogen) with an N-terminal haemagglutinin signal peptide (HA) and a thermostabilized BRIL fusion, followed by a C-terminal 15-amino acid linker, a LgBiT subunit and two MBPs to facilitate receptor expression and stability. The Gαi construct was designed with dominant-negative mutations S47N, G203A, A326S, and E245A to decrease the affinity of nucleotide-binding and stable Gαβγ complex. The mini-Gαq construct was designed with the C-terminal α-helix (αH5) of Gαq, which is critical for G protein coupling selectivity. The core of the construct, known as the Ras domain, is derived from Gαs. This design choice was made to enable the binding of the nanobody Nb35, which stabilizes the complex for cryo-EM analysis. […] Rat Gβ1 was constructed with a N-terminal 16× His-tag for purification and a C-terminal HiBiT to form a NanoBiT with LgBiT. […] The wild-type and mutants of MCHR1 and MCHR2 were constructed into the pcDNA6.0 vector […] for functional assays.
(§5) GloSensor cAMP assay was used to detect the downstream Gαi signal of MCHR1 using GloSensor cAMP Reagent (Promega).
In general terms: Cyclic AMP is a second messenger, typically raised through Gs and lowered through Gi signalling.

The target of assay [6] is T6, MCHR2 S183(ECL2)A (Homo sapiens, UniProt Q969V1, S183A).
T6 construct: expressed in transfected cells; host or cells: AD293
In words: IP-One IP1 accumulation assay, MCHR2 S183A. The settings on record: AD293, mean ± S.E.M., n = 3 in triplicate.
Description: as §1, §2, §3

Assay [7] concerns the target T7, MCHR1 D192(3.32)A (Homo sapiens, UniProt Q99705, D123A).
T7 construct: expressed in transfected cells; host or cells: HEK293
Description: GloSensor cAMP assay, MCHR1 D192A. To be noted: HEK293, mean ± S.E.M., n = 3 in triplicate.
Description: as §4, §5

Assay [8] has as its target T8, MCHR2 Y285(7.32)A (Homo sapiens, UniProt Q969V1, Y285A).
T8 construct: expressed in transfected cells; host or cells: AD293
In words: IP-One IP1 accumulation assay, MCHR2 Y285A. The settings on record: AD293, mean ± S.E.M., n = 3 in triplicate.
Description: as §1, §2, §3

Assay [9] deals with T9, MCHR1 F161(2.53)A (Homo sapiens, UniProt Q99705, F92A).
T9 construct: expressed in transfected cells; host or cells: HEK293
In words: GloSensor cAMP assay, MCHR1 F161A. To be noted: HEK293, mean ± S.E.M., n = 3 in triplicate.
Description: as §4, §5

Assay [10] deals with T10, MCHR2 L188(ECL2)A (Homo sapiens, UniProt Q969V1, L188A).
T10 construct: expressed in transfected cells; host or cells: AD293
Description: IP-One IP1 accumulation assay, MCHR2 L188A. To be noted: AD293, mean ± S.E.M., n = 3 in triplicate.
Description: as §1, §2, §3

Assay [11] deals with T11, MCHR2 V181(ECL2)A (Homo sapiens, UniProt Q969V1, V181A).
T11 construct: expressed in transfected cells; host or cells: AD293
Description: IP-One IP1 accumulation assay, MCHR2 V181A. The settings on record: n = 3 in triplicate.
Description: as §1, §2, §3

Assay [12] deals with T12, MCHR2 P280(ECL3)A (Homo sapiens, UniProt Q969V1, P280A).
T12 construct: expressed in transfected cells; host or cells: AD293
Description: IP-One IP1 accumulation assay, MCHR2 P280A. The settings on record: n = 3 in triplicate.
Description: as §1, §2, §3

Assay [13] deals with T13, MCHR2 V194(5.35)A (Homo sapiens, UniProt Q969V1, V194A).
T13 construct: expressed in transfected cells; host or cells: AD293
In words: IP-One IP1 accumulation assay, MCHR2 V194A. The settings on record: n = 3 in triplicate.
Description: as §1, §2, §3

Setting [14] is: AD293, IP-One HTRF, 37 °C 1 h, mean ± S.E.M., P < 0.0001 vs WT.

Molecules are shown by their SMILES.

T11 sequence (Q969V1 whole entry V181A): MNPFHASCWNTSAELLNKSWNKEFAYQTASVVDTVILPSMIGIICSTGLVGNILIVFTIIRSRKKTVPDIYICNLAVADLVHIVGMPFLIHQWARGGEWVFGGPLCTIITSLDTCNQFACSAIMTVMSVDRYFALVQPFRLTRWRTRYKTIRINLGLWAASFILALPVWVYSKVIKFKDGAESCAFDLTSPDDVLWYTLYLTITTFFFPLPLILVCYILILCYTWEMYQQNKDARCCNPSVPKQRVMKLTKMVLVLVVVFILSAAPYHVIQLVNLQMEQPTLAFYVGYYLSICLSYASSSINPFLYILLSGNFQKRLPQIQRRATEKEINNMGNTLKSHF
T1 sequence (Q969V1 whole entry A185F): as the sequence (Q969V1 whole entry V181A) above, with A181V, A185F counted along it
T13 sequence (Q969V1 whole entry V194A): as the sequence (Q969V1 whole entry V181A) above, with A181V, V194A counted along it
T4 sequence (Q969V1 whole entry D179A): as the sequence (Q969V1 whole entry V181A) above, with D179A, A181V counted along it
T12 sequence (Q969V1 whole entry P280A): as the sequence (Q969V1 whole entry V181A) above, with A181V, P280A counted along it
T2 sequence (Q969V1 whole entry L89A): as the sequence (Q969V1 whole entry V181A) above, with L89A, A181V counted along it
T3 sequence (Q969V1 whole entry I292A): as the sequence (Q969V1 whole entry V181A) above, with A181V, I292A counted along it
T6 sequence (Q969V1 whole entry S183A): as the sequence (Q969V1 whole entry V181A) above, with A181V, S183A counted along it
T5 sequence (Q99705 whole entry I196A): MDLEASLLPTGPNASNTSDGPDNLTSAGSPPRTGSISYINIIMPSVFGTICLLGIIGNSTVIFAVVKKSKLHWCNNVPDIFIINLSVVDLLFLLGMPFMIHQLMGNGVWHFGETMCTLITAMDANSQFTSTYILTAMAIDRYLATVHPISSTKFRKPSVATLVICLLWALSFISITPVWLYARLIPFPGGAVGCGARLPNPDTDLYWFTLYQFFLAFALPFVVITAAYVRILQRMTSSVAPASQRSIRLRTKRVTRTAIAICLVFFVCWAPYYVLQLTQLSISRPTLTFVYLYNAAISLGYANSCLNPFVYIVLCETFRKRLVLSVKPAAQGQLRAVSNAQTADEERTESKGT
T8 sequence (Q969V1 whole entry Y285A): as the sequence (Q969V1 whole entry V181A) above, with A181V, Y285A counted along it
T9 sequence (Q99705 whole entry F92A): as the sequence (Q99705 whole entry I196A) above, with F92A, A196I counted along it
T7 sequence (Q99705 whole entry D123A): as the sequence (Q99705 whole entry I196A) above, with D123A, A196I counted along it
T10 sequence (Q969V1 whole entry L188A): as the sequence (Q969V1 whole entry V181A) above, with A181V, L188A counted along it

Usually EC50 stands for the midpoint of the concentration-response curve. A word on the Emax: it is the maximal effect, on the per cent scale that the assay sets. Take `CSCC[C@@H]1NC(=O)[C@@H](NC(=O)[C@H](CCCNC(=N)N)NC(=O)[C@H](CC(C)C)NC(=O)[C@H](CCSC)NC(=O)[C@H](CC(=O)O)NC(=O)[C@H](Cc2ccccc2)NC(=O)[C@@H](N)CC(=O)O)CSSC[C@@H](C(=O)N[C@@H](Cc2c[nH]c3ccccc23)C(=O)N[C@@H](CCC(N)=O)C(=O)N[C@H](C(=O)O)C(C)C)NC(=O)[C@@H]2CCCN2C(=O)[C@H](CCCNC(=N)N)NC(=O)[C@H](Cc2ccc(O)cc2)NC(=O)[C@H](C(C)C)NC(=O)[C@H](CCCNC(=N)N)NC(=O)CNC(=O)[C@H](CC(C)C)NC1=O` [MCH, Melanin-concentrating hormone]: the EC50 is 12.6 µM in assay [1] (setting [14]); 9.12 nM in assay [2] (AD293, IP-One HTRF, 37 °C 1 h, mean ± S.E.M., P 0.1322 vs WT); 129 nM in [3] (setting [14]); 1290 nM in assay [4] (setting [14]); 53.7 nM in assay [11] (setting [14]); 182 nM in [12] (setting [14]). The molecule also gave an EC50 in assay [13] (setting [14]) of 33.1 nM. Besides, the maximum response (Emax) turned out to be 96 ± 1% in assay [1] (AD293, mean ± S.E.M.); 104 ± 2% in assay [2] (AD293, mean ± S.E.M.); 92 ± 2% in assay [3] (AD293, mean ± S.E.M.); 85% in [4] (AD293, mean ± S.E.M.); 88 ± 3% in [5]; 95 ± 1% in [6]. For the same molecule, the Emax in assay [7] turned out to be 40 ± 7%; in assay [8], 92 ± 2%; in assay [9], 124 ± 1%; in [10], 101 ± 1%; in assay [11] (AD293, mean ± S.E.M.), 96 ± 1%; in assay [12] (AD293, mean ± S.E.M.), 90 ± 2%. Moreover, the Emax in assay [13] (AD293, mean ± S.E.M.) worked out at 98 ± 1%.
